“And” between values parts separate entries of the source, which are not always exact repeats. Equal entries are not always repeated. Where two headings read alike, the source gives them in different places.

The IC50 is the concentration that inhibits the measured activity by half.

One assay relates to mouse liver cancer cells. The conditions noted are these: MTT assay, reported in CN101633660A; cited from earlier work. (In general: Tetrazolium assays rely on reduction of a dye to a coloured formazan, in cell work by metabolically active cells.)
The test system of another assay is mouse sarcoma cells. The conditions noted are these: MTT assay, reported in CN101633660A; cited from earlier work.
Assay [1] has as its system human lung cancer cell A549. Briefly: in vitro tumor cell proliferation inhibition assay (MTT), A549. The format is cell-based. The conditions noted are these: for absorbance at 570 nm, Average: average of 3 wells; for absorbance at 570 nm, Average / Survival / absorbance at 570 nm (single well, S/N 1-3): parallel tests I-III; for absorbance at 570 nm (single well, S/N 1-3): MTT. As to the method:
(§1) The abietane type diterpene compound Leucosceptrum A prepared in Embodiment 2 is tested for its anti-tumor ability, with a process as follows: in vitro tumor cell proliferation inhibition assay: exponential phase tumor cells are taken and the cell suspension concentration is adjusted (50,000-100,000 cells/mL), then the cell suspension is inoculated in 96-well plate with 100 microlitres (u L) per well (M L/well), followed by drug administration (100 μL/well) 24 h after inoculation; a blank control group, a cell control group and 6 drug groups with concentrations (3.12, 6.25, 12.5, 25, 50, 100 micromoles per litre (u mol/L)) are set up respectively, and the drug in the cell control group is cisplatin; after continuous cultivation for 72 […]

The test system of assay [2] is human promyelocytic leukemia cell HL-60. Kind of assay: in vitro tumor cell proliferation inhibition assay (MTT), HL-60. The class given is cell-based. Conditions: for absorbance at 570 nm, Average: average of 3 wells; for absorbance at 570 nm, Average / Survival / absorbance at 570 nm (single well, S/N 1-3): parallel tests I-III; for absorbance at 570 nm (single well, S/N 1-3): MTT. As to the method:
as §1

[3] abbreviates: A549, 72 h, mean ± spread of parallel tests, unit inferred, read-out: IC50 according to the above data (three parallel tests).
[4] abbreviates: A549, 72 h, one value per parallel test I, II, III, unit not given (concentrations in μmol/L), read-out: IC50 according to Graphpad Prism 6.0 (single parallel test).
Setting [5] is: HL-60, 72 h, mean ± spread of parallel tests, unit inferred, read-out: IC50 obtained according to the above data (three parallel tests).
The mark [6] stands for this setting: HL-60, 72 h, one value per parallel test I, II, III, unit not given (concentrations in μmol/L), read-out: IC50 according to Graphpad Prism 6.0 (single parallel test).

For lushanrubescensin D, the “inhibitory effect on mouse liver cancer cells” value with mouse liver cancer cells is listed as “significant inhibitory effect”. For the same compound, the “inhibitory effect on mouse sarcoma cells” value in the assay on mouse sarcoma cells is listed as “significant inhibitory effect”.

Regarding `C=C(C)c1cc(O)c2c(c1O)C(=O)CC1C(C)(C)CCCC21C` (stereo not drawn) [Leucosceptrum A, 11,14-dihydroxy-8,11,13,15-abietatetraen-7-one], the “absorbance at 570 nm, Average” value was 0.815 and 0.7807 and 0.813 in assay [1] (A549, 3.12 μmol/L, 72 h); 0.7823 and 0.7553 and 0.7943 in assay [1] (A549, 6.25 μmol/L, 72 h); 0.6333 and 0.6687 and 0.59 in assay [1] (A549, 12.5 μmol/L, 72 h); 0.1827 and 0.192 and 0.1953 in assay [1] (A549, 25 μmol/L, 72 h); 0.0813 and 0.07 and 0.0793 in assay [1] (A549, 50 μmol/L, 72 h); 0.0767 and 0.0657 and 0.069 in assay [1] (A549, 100 μmol/L, 72 h). Moreover, the “absorbance at 570 nm, Average” value in assay [2] (HL-60, 3.12 μmol/L, 72 h) is 0.4477 and 0.4213 and 0.3807; in assay [2] (HL-60, 6.25 μmol/L, 72 h), 0.3683 and 0.3987 and 0.364; in assay [2] (HL-60, 12.5 μmol/L, 72 h), 0.221 and 0.1817 and 0.281; in assay [2] (HL-60, 25 μmol/L, 72 h) it was 0.0887 and 0.0577 and 0.069; in assay [2] (HL-60, 50 μmol/L, 72 h) it was 0.052 and 0.0433 and 0.048; in assay [2] (HL-60, 100 μmol/L, 72 h), 0.0303 and 0.032 and 0.039. In addition, the Survival in assay [1] (A549, 3.12 μmol/L, 72 h) was 98.11% and 95.42% and 95.31%; in assay [1] (A549, 6.25 μmol/L, 72 h), 94.17% and 92.31% and 93.11%; in assay [1] (A549, 12.5 μmol/L, 72 h) it was 76.22% and 81.68% and 69.13%; in assay [1] (A549, 25 μmol/L, 72 h) it was 21.90% and 23.22% and 22.81%; in assay [1] (A549, 50 μmol/L, 72 h) it was 9.68% and 8.76% and 9.19%; in assay [1] (A549, 100 μmol/L, 72 h), 9.12% and 7.73% and 7.98%. Also, the Survival in assay [2] (HL-60, 3.12 μmol/L, 72 h) is 82.21% and 78.96% and 66.67%; in assay [2] (HL-60, 6.25 μmol/L, 72 h), 67.61% and 74.70% and 63.73%; in assay [2] (HL-60, 12.5 μmol/L, 72 h), 40.49% and 33.94% and 49.09%; in assay [2] (HL-60, 25 μmol/L, 72 h), 16.13% and 10.64% and 11.79%; in assay [2] (HL-60, 50 μmol/L, 72 h) it was 9.39% and 7.95% and 8.00%; in assay [2] (HL-60, 100 μmol/L, 72 h) it was 5.40% and 5.82% and 6.41%. Moreover, the “absorbance at 570 nm (single well, S/N 1-3)” value is 0.828 and 0.791 and 0.728 and 0.711 and 0.786 and 0.769 and 0.822 and 0.77 in assay [1] (A549, 6.25 μmol/L, 72 h); 0.085 and 0.074 and 0.077 and 0.059 and 0.071 and 0.079 and 0.088 in assay [1] (A549, 50 μmol/L, 72 h); 0.078 and 0.067 and 0.085 and 0.073 and 0.066 and 0.058 in assay [1] (A549, 100 μmol/L, 72 h); 0.049 and 0.054 and 0.053 and 0.048 and 0.045 and 0.037 and 0.038 in assay [2] (HL-60, 50 μmol/L, 72 h). The IC50 in assay [1] (setting [3]) was 17.5 ± 0.88 µM; in assay [1] (setting [4]), 17.6 µM and 18.4 µM and 16.6 µM; in assay [1] (A-549 cells, 72 h, read-out: 72-hour IC50) it was 17.5 ± 0.88 µM; in assay [2] (setting [5]), 9.06 ± 0.59 µM; in assay [2] (setting [6]) it was 9.58 µM and 9.19 µM and 8.42 µM; in assay [2] (HL-60 cells, 72 h, read-out: 72-hour IC50), 9.06 ± 0.59 µM.

`N.N.[Cl][Pt][Cl]` [Cisplatin, cisplatin, reference compound]: the “absorbance at 570 nm, Average” value was 0.666 and 0.6207 and 0.678 in assay [1] (A549, 3.12 μmol/L, 72 h); 0.442 and 0.4673 and 0.4623 in assay [1] (A549, 6.25 μmol/L, 72 h); 0.2543 and 0.2593 and 0.265 in assay [1] (A549, 12.5 μmol/L, 72 h); 0.2027 and 0.2047 and 0.2257 in assay [1] (A549, 50 μmol/L, 72 h); 0.1913 and 0.189 and 0.2023 in assay [1] (A549, 100 μmol/L, 72 h); 0.6123 and 0.433 and 0.4877 in assay [2] (HL-60, 3.12 μmol/L, 72 h). Besides, the “absorbance at 570 nm, Average” value in assay [2] (HL-60, 6.25 μmol/L, 72 h) was 0.416 and 0.3023 and 0.4303; in assay [2] (HL-60, 12.5 μmol/L, 72 h), 0.312 and 0.2347 and 0.231; in assay [2] (HL-60, 50 μmol/L, 72 h), 0.11 and 0.076 and 0.0597; in assay [2] (HL-60, 100 μmol/L, 72 h), 0.0213 and 0.0253 and 0.017. The Survival is 97.75% and 98.46% and 96.86% in assay [1] (A549, 3.12 μmol/L, 72 h); 64.82% and 74.09% and 66.03% in assay [1] (A549, 6.25 μmol/L, 72 h); 37.24% and 41.02% and 37.88% in assay [1] (A549, 12.5 μmol/L, 72 h); 35.18% and 37.36% and 35.35% in assay [1] (A549, 25 μmol/L, 72 h); 29.64% and 32.33% and 32.21% in assay [1] (A549, 50 μmol/L, 72 h); 27.98% and 29.84% and 28.87% in assay [1] (A549, 100 μmol/L, 72 h). In addition, the Survival in assay [2] (HL-60, 3.12 μmol/L, 72 h) was 96.57% and 87.56% and 92.66%; in assay [2] (HL-60, 6.25 μmol/L, 72 h) it was 65.51% and 61.20% and 81.78%; in assay [2] (HL-60, 12.5 μmol/L, 72 h), 49.05% and 47.55% and 43.96%; in assay [2] (HL-60, 25 μmol/L, 72 h) it was 43.57% and 22.80% and 31.06%; in assay [2] (HL-60, 50 μmol/L, 72 h), 17.09% and 15.53% and 11.45%; in assay [2] (HL-60, 100 μmol/L, 72 h), 3.06% and 5.31% and 3.35%. The IC50 in assay [1] (setting [3]) is 16 ± 1.69 µM; in assay [1] (setting [4]), 14.6 µM and 17.9 µM and 15.4 µM; in assay [2] (setting [5]), 12.7 ± 1.87 µM; in assay [2] (setting [6]), 14.4 µM and 10.7 µM and 13.2 µM. In assay [2] (HL-60, 12.5 μmol/L, 72 h), the “absorbance at 570 nm (single well, S/N 1-3)” value was 0.346 and 0.244 and 0.185 and 0.299 and 0.22 and 0.197 and 0.201 and 0.295.

The values are drawn from patent publication US11981630B1, “Abietane type diterpene compound, preparation method and application thereof” (Hangzhou Normal University, priority 2022, dated 2024).
